Peptide text beside a SMILES is read from it. * marks the point of attachment. βNA = c1ccc2cc(N*)ccc2c1
Tests used:
Format in all cases: cell-based
[1] = system: S. enterica serovar Typhimurium SL1344 sifB::gfp in RAW264.7 macrophages; experiment: SAFIRE assay, intracellular bacterial load in macrophages; conditions: Salmonella enterica
Description: The following experiments were performed using the SAFIRE assay described in U.S. Publication 2020/0022961, which is incorporated by reference in its entirety for all purposes. SAFIRE (Screen for Anti-infectives using Fluorescence microscopy of IntracellulaR Enterobacteriaceae) uses cell culture as a surrogate to identify compounds that prevent intracellular replication of a model Gram-negative bacterial human pathogen. The method identifies compounds that prevent bacterial growth in broth culture and compounds that decrease the load of Gram-negative bacteria inside of macrophages at concentrations≤10 μM but have no effect on bacterial growth in standard Mueller Hinton broth (MHB) at 100 μM. Thus, SAFIRE enables the discovery of compounds that are effective against Gram-negative bacteria in host cells and in whole animals, whether or not they are antibacterial in broth.
(§1) The wild-type S. enterica serovar Typhimurium strain, SL1344, was initially isolated from the blood of an infected calf. For screening and validation in macrophages, SL1344 sifB::gfp was grown in Luria-Bertani Broth (LB) with 30 μg/ml streptomycin and 30 μg/ml kanamycin to saturation overnight, diluted to an OD of 0.001 and frozen in 100 μL aliquots in 20% glycerol at −80° C. Prior to infection, aliquots were grown in 5 mL cultures of LB with 30 μg/ml streptomycin and 30 μg/ml kanamycin for 18 hours at 37° C. with aeration. Bacterial strains were routinely grown in LB with antibiotics: 30 μg/ml streptomycin, 30 μg/ml kanamycin, 50 μg/ml ampicillin, 10 μg/ml tetracycline, and/or 1.15 μg/ml meropenem. The acrAB::kan and macAB::kan strains were constructed according to known methods. S. enterica subsp. enterica, serovar Typhimurium strain S10801, NR-22067 is a multidrug resistant isolate from a calf with sepsis. This strain and others as indicated were obtained through BEI resources, NIAID, NIH.
(§2) Murine macrophage-like RAW 264.7 cells and HeLa human epithelial cells were obtained from the American Type Tissue Collection. BMDMs were isolated as previously described. Briefly, marrow was flushed from the femurs of 1- to 4-month-old 129SvEvTac mice (Taconic Laboratories) bred in-house. Mononuclear cells were separated using Histopaque-1083 (Sigma), washed, and directly seeded into assay plates at 1×10^5 cells/ml in complete medium supplemented with 35% conditioned media from 3T3 cells expressing MCSF. Media were refreshed three days later. After 1 week, media were replaced with 100 μL fresh media and cells were infected as described below. All three types of cells were grown in DMEM high glucose (Sigma) supplemented with 10% fetal bovine serum, 2 mM L-glutamine, 1 mM sodium pyruvate, 10 mM HEPES, and 50 μMβ-mercaptoethanol. Cells were maintained in a 5% CO2 humidified atmosphere at 37° C. For screening, frozen aliquots of RAW 264.7 were thawed and allowed to expand for three days prior to seeding; other experiments were performed with cultures between passages four and 20.
SAFIRE—RAW264.7 macrophages (7×103 in 40 μL or 5×104 in 100 μL) were seeded, respectively, in 384- or 96-well black-walled glass-bottomed plates (Brooks Automation). Twenty four hours post-seeding, bacteria in 20 or 50 μL PBS were added to a final concentration of 1×10^7 CFU/mL, conditions yielding infection of approximately 70% of macrophages at 18 hours post-infection with minimal macrophage toxicity. The sifB::gfp bacterial reporter strain was used to minimize green signal from extracellular bacteria. […] At two hours post-infection, 200 or 500 nL compound was added using a pin tool (CyBio) to yield a final concentration of 25 μM. Each assay plate included rifampicin and DMSO controls. In some experiments, media were removed and replaced with fresh media containing 40 μg/mL gentamicin and increasing concentrations of the compounds of the disclosure. […]

RAW264.7 macrophages = conditions: mouse, 16 h
Source text: as §2
SAFIRE—RAW264.7 macrophages (7×103 in 40 μL or 5×104 in 100 μL) were seeded, respectively, in 384- or 96-well black-walled glass-bottomed plates (Brooks Automation). Twenty four hours post-seeding, bacteria in 20 or 50 μL PBS were added to a final concentration of 1×10^7 CFU/mL, conditions yielding infection of approximately 70% of macrophages at 18 hours post-infection with minimal macrophage toxicity. The sifB::gfp bacterial reporter strain was used to minimize green signal from extracellular bacteria. […] At two hours post-infection, 200 or 500 nL compound was added using a pin tool (CyBio) to yield a final concentration of 25 μM. Each assay plate included rifampicin and DMSO controls. In some experiments, media were removed and replaced with fresh media containing 40 μg/mL gentamicin and increasing concentrations of the compounds of the disclosure. At 17.5 hours post-infection, PBS containing MitoTracker Red CMXRos (Life Technologies) was added to a final concentration of 300 nM or 100 nM, for 384- or 96-well, respectively. Thirty minutes later, 16% paraformaldehyde was added to a final concentration of […] and incubated at room temperature for 15 minutes. Wells were washed twice with PBS and stained for 20 minutes with 1 μMDAPI; wells were washed twice and stored in 90% glycerol in PBS until imaging. The Z′-factor of the screening platform was 0.59 and 0.48 in 96-well and 384-well plates, respectively, within published ranges for complicated cell-based screens.
In addition, toxicity was measured according the following procedure: 1) analyzing macrophage cell morphology; and 2) using MATLAB to count cells (cells that lift up and float after treatment are not within the appropriate Z plane to be counted, and thus are considered dead). If 70% of the cells are adherent (as measured by comparing the number of cells before and after treatment), the compound is considered not toxic. Compounds that pass #1 and #2 above are considered to have a toxicity “>50 μM”. […]

E. Cloacae MB315 = experiment: PMB MIC with selected compound in MHB; conditions: for MIC: Enterobacter cloacae, selected compound 50 μg/mL in MHB
Description: (§3) MIC for the antibiotic alone (i.e., in the absence of the disclosed compounds) is provided in the first row labeled “None”. […] […] At this concentration (50 μg/mL), the compounds of the disclosure lacked intrinsic antibacterial activity but a significant improvement in efficacy was still observed. Thus, the compounds of the disclosure may be used to potentiate the activity of antibiotics that have lost their efficacy due to efflux.

K. pneumoniae BAA-1705 [2] = experiment: Ciprofloxacin MIC with selected compound in MHB
Description: as §3

E. cloacae BAA-2341 [3] = experiment: Doxycycline MIC with selected compound in MHB
Description: as §3

E. coli BAA-2340 [4] = experiment: Ciprofloxacin MIC with selected compound in MHB; conditions: comparator at 25 μg/mL in MHB
K. pneumoniae BAA-2342 [5] = experiment: Doxycycline MIC with selected compound in MHB
Source text: (§4) MIC for the antibiotic alone (i.e., in the absence of the disclosed compounds) is provided in the first row labeled “None”. […] […] […] Thus, the compounds of the disclosure may be used to potentiate the activity of antibiotics that have lost their efficacy due to efflux.

K. pneumoniae BAA-1705 [6] = experiment: Doxycycline MIC with selected compound in MHB
Source text: as §4

E. coli BAA-2340 [7] = experiment: Doxycycline MIC with selected compound in MHB
Source text: as §4

[8] = system: P. aeruginosa Focus MB0477; experiment: Chloramphenicol MIC with selected compound in MHB
Description: as §3

E. coli BAA-2340 [9] = experiment: Chloramphenicol MIC with selected compound in MHB
Description: as §3

K. pneumoniae BAA-2342 [10] = experiment: Ciprofloxacin MIC with selected compound in MHB; conditions: comparator at 25 μg/mL in MHB
[11] = system: S. enterica sp. Enterica S10801; experiment: Doxycycline MIC with selected compound in MHB
Description: as §1
MIC for the antibiotic alone (i.e., in the absence of the disclosed compounds) is provided in the first row labeled “None”. […] At this concentration (50 μg/mL), the compounds of the disclosure lacked intrinsic antibacterial activity but a significant improvement in efficacy was still observed. […]

E. cloacae BAA-2341 [12] = experiment: Ciprofloxacin MIC with selected compound in MHB; conditions: comparator at 25 μg/mL in MHB
A. baumannii MB306 = experiment: Chloramphenicol MIC with selected compound in MHB
Source text: as §4

A. baumannii MB309 = experiment: Chloramphenicol MIC with selected compound in MHB
Source text: as §4

K. pneumoniae BAA-2342 [13] = experiment: Chloramphenicol MIC with selected compound in MHB
Source text: as §4

E. cloacae BAA-2341 [14] = experiment: Chloramphenicol MIC with selected compound in MHB
Source text: as §4

[15] = Enterobacter cloacae, BAA2341, antibiotic alone (row None), MHB
[16] = Klebsiella pneumoniae, BAA2342, antibiotic alone (row None), MHB
[17] = Escherichia coli, BAA2340, antibiotic alone (row None), MHB
[18] = Acinetobacter baumannii, antibiotic alone (row None), MHB

Compound	IC50 [1]	Toxicity (RAW264.7 macrophages)	MIC (E. Cloacae MB315)	also measured
NC1CCN(CC(O)COc2c(Cl)cccc2Cl)CC1 (stereo not drawn) [Compound 8]	< 1 µM	>50 µM		
CN(CCCCN)CC(O)COc1cc(Cl)cc(Cl)c1 (stereo not drawn) [Compound 19]	< 1 µM	<50 but >25 μM	32 mg/L	
NC1CCN(CC(O)COc2ccc(Cl)c(Cl)c2)CC1 (stereo not drawn) [Compound 4]	< 1 µM	<25 µM	16 mg/L	
N[C@@H]1CCN(C[C@H](O)COc2ccc(Cl)c(Cl)c2)C1 [Compound 13]	< 1 µM	>50 µM		
O=C(O)c1cn(C2CC2)c2cc(N3CCNCC3)c(F)cc2c1=O [Ciprofloxacin, ciprofloxacin]				MIC (K. pneumoniae BAA-1705 [2]; Klebsiella pneumoniae, BAA1705, read-out: Ciprofloxacin MIC, antibiotic alone (row None), MHB): > 64 mg/L
NC1CCN(C[C@@H](O)COc2ccc(Cl)c(Cl)c2)C1 (stereo partly drawn) [Compound 3]	< 1 µM	>50 µM	32 mg/L	
NCC1CCN(CC(O)COc2cc(Cl)cc(Cl)c2)C1 (stereo not drawn) [Compound 10]	< 1 µM	<50 but >25 μM	32 mg/L	
N=C(N)NCCC[C@H](NC(=O)[C@@H](N)Cc1ccccc1)C(=O)Nc1ccc2ccccc2c1 [PAβN] (H-Phe-Arg-βNA)				Ciprofloxacin MIC (K. pneumoniae BAA-1705 [2]; comparator at 25 μg/mL in MHB): 64 mg/L; Doxycycline MIC (E. cloacae BAA-2341 [3]; comparator at 25 μg/mL in MHB): ≤1 mg/L; Ciprofloxacin MIC (E. coli BAA-2340 [4]): 16 mg/L; Doxycycline MIC (K. pneumoniae BAA-2342 [5]; comparator at 25 μg/mL in MHB): ≤1 mg/L; Doxycycline MIC (K. pneumoniae BAA-1705 [6]; comparator at 25 μg/mL in MHB): ≤1 mg/L; Doxycycline MIC (E. coli BAA-2340 [7]; comparator at 25 μg/mL in MHB): ≤1 mg/L; Chloramphenicol MIC ([8]; comparator at 25 μg/mL in MHB): 1 mg/L; Chloramphenicol MIC (E. coli BAA-2340 [9]; comparator at 25 μg/mL in MHB): 8 mg/L; Ciprofloxacin MIC (K. pneumoniae BAA-2342 [10]): 16 mg/L; Doxycycline MIC ([11]; comparator at 25 μg/mL in MHB): 8 mg/L; PMB MIC (E. Cloacae MB315; comparator at 25 μg/mL in MHB): 32 mg/L; Ciprofloxacin MIC (E. cloacae BAA-2341 [12]): 16 mg/L; Chloramphenicol MIC (A. baumannii MB306; comparator at 25 μg/mL in MHB): 32 mg/L; Chloramphenicol MIC (A. baumannii MB309; comparator at 25 μg/mL in MHB): 64 mg/L; Chloramphenicol MIC (K. pneumoniae BAA-2342 [13]; comparator at 25 μg/mL in MHB): 8 mg/L; Chloramphenicol MIC (E. cloacae BAA-2341 [14]; comparator at 25 μg/mL in MHB): 2 mg/L
NC1CCN(C[C@H](O)COc2ccc(Cl)c(Cl)c2)C1 (stereo partly drawn) [Compound 2]	< 1 µM	>50 µM		
NC1CCN(CC(O)COc2cccc(C(F)(F)F)c2)CC1 (stereo not drawn) [Compound 12]	< 1 µM	>50 µM		
N[C@@H]1CCN(CC(O)COc2ccc(Cl)c(Cl)c2)C1 (stereo partly drawn) [Compound 9]	< 1 µM	>50 µM		
NC1CCN(CC(O)COc2ccc(Cl)cc2Cl)CC1 (stereo not drawn) [Compound 7]	< 1 µM	<50 but >25 μM	32 mg/L	
NC1CCN(CC(O)COc2ccc(Cl)cc2)CC1 (stereo not drawn) [Compound 6]	< 1 µM	>50 µM		
N[C@H]1CCN(C[C@H](O)COc2ccc(Cl)c(Cl)c2)C1 [Compound 14]	> 1 µM	>50 µM		
NC1CCN(CC(O)COc2ccc(Cl)c(Cl)c2)C1 (stereo not drawn) [Compound 1]	< 1 µM	>50 µM	32 mg/L	
C[C@H]1c2cccc(O)c2C(=O)C2=C(O)[C@]3(O)C(=O)C(C(N)=O)=C(O)[C@@H](N(C)C)[C@@H]3[C@@H](O)[C@@H]21 [Doxycycline, doxycycline]				MIC (E. cloacae BAA-2341 [3]; [15]): 8 mg/L; MIC (K. pneumoniae BAA-2342 [5]; [16]): 8 mg/L; MIC (K. pneumoniae BAA-1705 [6]; Klebsiella pneumoniae, BAA1705, antibiotic alone (row None), MHB): 4 mg/L; MIC (E. coli BAA-2340 [7]; [17]): 8 mg/L; MIC ([11]; Salmonella enterica, antibiotic alone (row None), MHB): 32 mg/L
N[C@@H]1CCN(C[C@@H](O)COc2ccc(Cl)c(Cl)c2)C1 [Compound 15]	< 1 µM	>50 µM		
N[C@H]1CCN(C[C@@H](O)COc2ccc(Cl)c(Cl)c2)C1 [Compound 16]	< 1 µM	>50 µM	32 mg/L	
COCCCN(C)C1CCN(CC(O)COc2ccc(Cl)c(Cl)c2)CC1 (stereo not drawn) [Compound 11]	< 1 µM	>50 µM		
OC(CN[C@H]1[C@@H]2CNC[C@@H]21)COc1cc(Cl)cc(Cl)c1 (stereo partly drawn) [Compound 18]	< 1 µM	>50 µM	1 mg/L	
O=C(N[C@H](CO)[C@H](O)c1ccc([N+](=O)[O-])cc1)C(Cl)Cl [Chloramphenicol, chloramphenicol]				MIC ([8]; Pseudomonas aeruginosa, FOCUSMB0477, antibiotic alone (row None), MHB): 64 mg/L; MIC (E. coli BAA-2340 [9]; [17]): 64 mg/L; MIC (A. baumannii MB306; [18]): > 64 mg/L; MIC (A. baumannii MB309; [18]): > 64 mg/L; MIC (K. pneumoniae BAA-2342 [13]; [16]): 64 mg/L; MIC (E. cloacae BAA-2341 [14]; [15]): 16 mg/L
OC(COc1ccc(Cl)c(Cl)c1)CN1CCC(n2ccnc2)CC1 (stereo not drawn) [Compound 5]	< 1 µM	>50 µM		
CC1(N)CCN(CC(O)COc2cc(Cl)cc(Cl)c2)CC1 (stereo not drawn) [Compound 17]	< 1 µM	<25 µM	16 mg/L	
